In patent publication US11951094B2, “TLR2 modulator compounds, pharmaceutical compositions and uses thereof” (Axial Therapeutics, Inc., priority 2020, dated 2024):
Structures can show the parent of a compound that is named as a salt.

Columns and labels:
Format in all cases: cell-based
TLR2 [1] = biological target: T1, TLR2 (Mus musculus, UniProt Q9QUN7); assay: TLR2 functional assay, cytokine release from RAW 264.7 mouse macrophage cell line; conditions: average of all runs
T1 construct: endogenous in cells; host or cells: RAW 264.7
Outline: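 RAW 264.7 cells plated (about 40,000 per well) and treated with compounds at varying concentrations for 6–24 h (or overnight). Released cytokines in supernatant (e.g. TNF-alpha, IL-1, IL-10, IL-12) measured by ELISA or MSD multiplex; EC50 fitted.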

TLR2 [2] = biological target: T2, TLR2 (Homo sapiens, UniProt O60603); assay: TLR2 in vitro functional assay, cytokine release from human monocytic cell line THP-1; conditions: THP-1 human monocytic cell line, average of all runs
Method: Cells of the immune system respond to TLR agonists in part by secreting cytokines. Functional assays for TLR2 agonists measure cytokine release from purified immune cells or immortalized cell lines derived from immune cells. Cytokine release is measured by standard ELISA approaches or multiplexed analysis using the Meso Scale Discovery (MSD) platform.
Following assay measurements utilizing either HEK-Blue detection or cytokine release, all data is analyzed with the GraphPad Prism8 statistical package to determine EC50, binding and activity metrics for the TLR2 modulators. […]
Numerous cell lines derived from various cell types can respond to TLR2 agonists with stereotyped cytokine and chemokine secretion. In particular, cell lines derived from macrophages respond robustly to TLR2 agonists by secreting a wide array of cytokines, including (but not limited to) TNF-alpha, IL-1, IL-10 and IL-12. The human monocytic cell line THP-1, the mouse macrophage line RAW-264.7, and the rat macrophage line NR8383 were used. For each assay, the respective cell lines were plated into 96-well plates overnight and then treated the following day with various TLR2-engaging compounds at varying concentrations. The next day, supernatants were collected and assayed by multiplex immunodetection for cytokines released (MSD detection kits for respective species).
Data provided in Table 5 is generated using protocols described in Example 45 and 46.

TLR2 [3] = biological target: T2, TLR2; assay: TLR2 agonist screening assay, HEK-Blue TLR2 reporter cell line (NF-kB-driven SEAP, absorbance at 600 nm); set-up: host or cells: HEK-293 (HEK-Blue TLR2 reporter cell line); conditions: HEK-Blue TLR2 reporter cells, agonist mode
Outline: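 Read-out: SEAP colour change, A600, after overnight agonist exposure. Cells: HEK-293 overexpressing TLR2, NF-kB-SEAP reporter, ~40,000/well, plated 16-24 h prior.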

T2 sequence (O60603 21-784): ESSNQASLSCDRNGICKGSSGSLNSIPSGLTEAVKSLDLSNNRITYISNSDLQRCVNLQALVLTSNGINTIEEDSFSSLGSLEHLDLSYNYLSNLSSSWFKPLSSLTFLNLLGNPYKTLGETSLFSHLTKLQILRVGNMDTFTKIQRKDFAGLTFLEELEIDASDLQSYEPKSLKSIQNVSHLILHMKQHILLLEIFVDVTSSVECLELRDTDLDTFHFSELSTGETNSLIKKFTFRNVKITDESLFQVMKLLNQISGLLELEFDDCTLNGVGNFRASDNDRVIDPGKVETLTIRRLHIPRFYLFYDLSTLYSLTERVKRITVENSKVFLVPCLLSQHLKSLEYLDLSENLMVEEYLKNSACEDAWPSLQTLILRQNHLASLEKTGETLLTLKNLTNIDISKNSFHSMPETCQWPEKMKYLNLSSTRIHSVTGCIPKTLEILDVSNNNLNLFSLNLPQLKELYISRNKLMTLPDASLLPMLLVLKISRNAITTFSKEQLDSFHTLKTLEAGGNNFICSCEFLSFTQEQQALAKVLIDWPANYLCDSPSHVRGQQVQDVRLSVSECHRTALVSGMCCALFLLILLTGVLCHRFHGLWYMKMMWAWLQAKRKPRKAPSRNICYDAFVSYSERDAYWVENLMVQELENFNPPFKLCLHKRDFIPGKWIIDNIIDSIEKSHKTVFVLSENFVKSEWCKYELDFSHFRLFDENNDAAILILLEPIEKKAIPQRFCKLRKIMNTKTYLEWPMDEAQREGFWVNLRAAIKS
T1 sequence (Q9QUN7 25-784): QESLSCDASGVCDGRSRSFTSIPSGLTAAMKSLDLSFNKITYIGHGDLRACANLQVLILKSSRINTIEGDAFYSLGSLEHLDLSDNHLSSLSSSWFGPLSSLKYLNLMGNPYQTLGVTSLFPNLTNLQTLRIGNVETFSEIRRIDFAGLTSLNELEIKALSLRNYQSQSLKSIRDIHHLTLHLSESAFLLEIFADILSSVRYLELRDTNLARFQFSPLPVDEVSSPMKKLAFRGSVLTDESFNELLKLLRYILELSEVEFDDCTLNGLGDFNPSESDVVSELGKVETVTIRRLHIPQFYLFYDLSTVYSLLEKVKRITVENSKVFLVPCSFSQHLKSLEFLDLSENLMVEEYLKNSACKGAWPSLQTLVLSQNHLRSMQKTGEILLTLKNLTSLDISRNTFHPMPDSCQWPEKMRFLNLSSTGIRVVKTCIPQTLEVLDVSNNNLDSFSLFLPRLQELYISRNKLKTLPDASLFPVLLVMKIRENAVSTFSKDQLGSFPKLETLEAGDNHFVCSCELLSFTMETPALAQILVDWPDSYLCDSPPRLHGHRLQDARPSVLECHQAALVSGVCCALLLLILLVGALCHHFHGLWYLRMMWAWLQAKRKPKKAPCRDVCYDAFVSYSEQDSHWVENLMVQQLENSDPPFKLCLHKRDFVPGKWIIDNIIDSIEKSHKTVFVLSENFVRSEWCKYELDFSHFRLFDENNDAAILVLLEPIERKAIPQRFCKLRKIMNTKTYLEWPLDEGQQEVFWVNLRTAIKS

Structure (SMILES)	EC50 (TLR2 [1]) [nM]	EC50 (TLR2 [2]) [nM]	EC50 (TLR2 [3]; average of all runs (Table 4)) [nM]	EC50 (TLR2 [3]; average of all runs (Table 3)) [nM]
CCCCCCCCCCCCCCC(=O)N[C@H]1CN(C(=O)c2ccc(C(=O)N3C[C@@H](C(=O)N[C@H]4C[C@@H]4c4ccccc4)[C@H](C(=O)N[C@H]4C[C@@H]4c4ccccc4)C3)cc2)C[C@@H]1OC [Compound 101, (3S,4S)-1-(4-((3S,4S)-3-methoxy-4-pentadecanamidopyrrolidine-1-carbonyl)benzoyl)-N3,N4-bis((1S,2R)-2-phenylcyclopropyl) pyrrolidine-3,4-dicarboxamide]	> 1000	0.1 to 50	0.1 to 50	–
CCCCCCCCCCCCCCNC(=O)[C@H]1CN(C(=O)c2ccc(C(=O)N3C[C@@H](C(=O)N[C@H]4C[C@@H]4c4ccccc4)[C@H](C(=O)N[C@H]4C[C@@H]4c4ccccc4)C3)cc2)C[C@H]1O (relative stereo) [Compound 104, (3S,4S)-1-(4-((3S*,4S*)-3-hydroxy-4-(tetradecylcarbamoyl)pyrrolidine-1-carbonyl)benzoyl)-N3,N4-bis((1S,2R)-2-phenylcyclopropyl)pyrrolidine-3,4-dicarboxamide]	–	0.1 to 50	0.1 to 50	–
CCCCCCCCCCCCCCNC(=O)C1CN(C(=O)c2ccc(C(=O)N3C[C@@H](C(=O)N[C@H]4C[C@@H]4c4ccccc4)[C@H](C(=O)N[C@H]4C[C@@H]4c4ccccc4)C3)cc2)CCN1 (mixture of isomers) [Compound 054, (3S,4S)—N3,N4-bis ((1S,2R)-2-phenylcyclopropyl)-1-(4-(3-(tetradecylcarbamoyl)piperazine-1-carbonyl)benzoyl) pyrrolidine-3,4-dicarboxamide]	–	0.1 to 50	–	51 to 350
CCCCCCCCN1C(=O)CN(C(=O)c2ccc(C(=O)N3C[C@@H](C(=O)N[C@H]4C[C@@H]4c4ccccc4)[C@H](C(=O)N[C@H]4C[C@@H]4c4ccccc4)C3)cc2)C[C@@H]1C(=O)NCCCCCC [Compound 075, (3S,4S)-1-(4-((R)-3-(hexylcarbamoyl)-4-octyl-5-oxopiperazine-1-carbonyl)benzoyl)-N3,N4-bis((1S,2R)-2-phenylcyclopropyl)pyrrolidine-3,4-dicarboxamide]	–	0.1 to 50	–	51 to 350
CCCCCCCCCCCCCCNC(=O)[C@@H]1CN(C(=O)c2ccc(C(=O)N3C[C@@H](C(=O)N[C@H]4C[C@@H]4c4ccccc4)[C@H](C(=O)N[C@H]4C[C@@H]4c4ccccc4)C3)cc2)C[C@@H]1O (single isomer, unassigned) [Compound 044, (3S,4S)-1-(4-((3R*,4R*)-3-hydroxy-4-(tetradecylcarbamoyl)pyrrolidine-1-carbonyl)benzoyl)-N3,N4-bis((1S,2R)-2-phenylcyclopropyl)pyrrolidine-3,4-dicarboxamide]	–	0.1 to 50	–	0.1 to 50
CCCCCCCNC(=O)[C@@H]1CN(C(=O)c2ccc(C(=O)N3C[C@@H](C(=O)N[C@H]4C[C@@H]4c4ccccc4)[C@H](C(=O)N[C@H]4C[C@@H]4c4ccccc4)C3)cc2)C[C@@H]1OCCCCCCC (relative stereo) [Compound 063, (3S,4S)-1-(4-((3R*,4R*)-3-(heptylcarbamoyl)-4-(heptyloxy)pyrrolidine-1-carbonyl)benzoyl)-N3,N4-bis((1S,2R)-2-phenylcyclopropyl)pyrrolidine-3,4-dicarboxamide]	–	0.1 to 50	–	351 to 1000
CCCCCCCCCCCCCCNC(=O)[C@@H]1CCCN(C(=O)c2ccc(C(=O)N3C[C@@H](C(=O)N[C@H]4C[C@@H]4c4ccccc4)[C@H](C(=O)N[C@H]4C[C@@H]4c4ccccc4)C3)cc2)C1 [Compound 102, (3S,4S)—N3,N4-bis((1S,2R)-2-phenylcyclopropyl)-1-(4-((R)-3-(tetradecylcarbamoyl)piperidine-1-carbonyl)benzoyl) pyrrolidine-3,4-dicarboxamide]	–	0.1 to 50	0.1 to 50	–
CCCCCCNC(=O)[C@H](CNC(=O)c1ccc(C(=O)N2C[C@@H](C(=O)N[C@H]3C[C@@H]3c3ccccc3)[C@H](C(=O)N[C@H]3C[C@@H]3c3ccccc3)C2)cc1)NC(=O)CCCCCC [Compound 025, (3S,4S)-1-(4-(((S)-2-heptanamido-3-(hexylamino)-3-oxopropyl)carbamoyl)benzoyl)-N3,N4-bis((1S,2R)-2-phenylcyclopropyl)pyrrolidine-3,4-dicarboxamide]	–	0.1 to 50	–	0.1 to 50
CCCCCCCCCCCCCCC(=O)N[C@@H]1CCN(C(=O)c2ccc(C(=O)N3C[C@@H](C(=O)N[C@H]4C[C@@H]4c4ccccc4)[C@H](C(=O)N[C@H]4C[C@@H]4c4ccccc4)C3)cc2)C1 [Compound 027, (3S,4S)-1-(4-((R)-3-pentadecanamidopyrrolidine-1-carbonyl)benzoyl)-N3,N4-bis((1S,2R)-2-phenylcyclopropyl)pyrrolidine-3,4-dicarboxamide]	–	0.1 to 50	–	0.1 to 50
CCCCCCCC(=O)N1CC(=O)N(Cc2ccc(C(=O)N3C[C@@H](C(=O)N[C@H]4C[C@@H]4c4ccccc4)[C@H](C(=O)N[C@H]4C[C@@H]4c4ccccc4)C3)cc2)C[C@H]1C(=O)NCCCCCC [Compound 076, (3S,4S)-1-(4-(((S)-5-(hexylcarbamoyl)-4-octanoyl-2-oxopiperazin-1-yl)methyl)benzoyl)-N3,N4-bis((1S,2R)-2-phenylcyclopropyl)pyrrolidine-3,4-dicarboxamide]	–	0.1 to 50	–	0.1 to 50
CCCCCCCCCCCCCCNC(=O)[C@H]1CN(C(=O)c2ccc(C(=O)N3C[C@@H](C(=O)N[C@H]4C[C@@H]4c4ccccc4)[C@H](C(=O)N[C@H]4C[C@@H]4c4ccccc4)C3)cc2)C[C@@H]1OC [Compound 110, (3S,4S)-1-(4-((3R,4S)-3-methoxy-4-(tetradecylcarbamoyl)pyrrolidine-1-carbonyl)benzoyl)-N3,N4-bis((1S,2R)-2-phenylcyclopropyl)pyrrolidine-3,4-dicarboxamide]	–	0.1 to 50	0.1 to 50	–
CCCCCCCCCCCCCCNC(=O)[C@H]1CN(C(=O)c2ccc(C(=O)N3C[C@@H](C(=O)N[C@H]4C[C@@H]4c4ccccc4)[C@H](C(=O)N[C@H]4C[C@@H]4c4ccccc4)C3)cc2)CCN1C [Compound 059, (3S,4S)-1-(4-((R)-4-methyl-3-(tetradecylcarbamoyl)piperazine-1-carbonyl)benzoyl)-N3,N4-bis((1S,2R)-2-phenylcyclopropyl)pyrrolidine-3,4-dicarboxamide formate]	–	0.1 to 50	–	0.1 to 50
CCCCCCCCCCCCCCC(=O)N[C@H]1CCN(C(=O)c2ccc(C(=O)N3C[C@@H](C(=O)N[C@H]4C[C@@H]4c4ccccc4)[C@H](C(=O)N[C@H]4C[C@@H]4c4ccccc4)C3)cc2)C1 [Compound 026, (3S,4S)-1-(4-((S)-3-pentadecanamidopyrrolidine-1-carbonyl)benzoyl)-N3,N4-bis((1S,2R)-2-phenylcyclopropyl)pyrrolidine-3,4-dicarboxamide]	–	51 to 350	–	51 to 350
CCCCCCCO[C@@H]1CN(C(=O)c2ccc(C(=O)N3C[C@@H](C(=O)N[C@H]4C[C@@H]4c4ccccc4)[C@H](C(=O)N[C@H]4C[C@@H]4c4ccccc4)C3)cc2)C[C@H]1C(=O)NCCCCCC (single isomer, unassigned) [Compound 072, (3S,4S)-1-(4-((3S*,4R*)-3-(heptyloxy)-4-(hexylcarbamoyl)pyrrolidine-1-carbonyl)benzoyl)-N3,N4-bis((1S,2R)-2-phenylcyclopropyl)pyrrolidine-3,4-dicarboxamide]	–	0.1 to 50	–	0.1 to 50
CCCCCCCC(=O)N1CCN(C(=O)c2ccc(C(=O)N3C[C@@H](C(=O)N[C@H]4C[C@@H]4c4ccccc4)[C@H](C(=O)N[C@H]4C[C@@H]4c4ccccc4)C3)cc2)CC1C(=O)NCCc1ccc(F)cc1 (stereo partly drawn) [Compound 036, (3S,4S)-1-(4-(3-((4-fluorophenethyl)carbamoyl)-4-octanoylpiperazine-1-carbonyl)benzoyl)-N3,N4-bis((1S,2R)-2-phenylcyclopropyl)pyrrolidine-3,4-dicarboxamide]	–	0.1 to 50	–	0.1 to 50
CCCCCCCC(=O)N1CCN(C(=O)c2ccc(C(=O)N3C[C@@H](C(=O)N[C@H]4C[C@@H]4c4ccccc4)[C@H](C(=O)N[C@H]4C[C@@H]4c4ccccc4)C3)cc2)C[C@@H]1C(=O)NCCCCCC [Compound 032, (3S,4S)-1-(4-((R)-3-(hexylcarbamoyl)-4-octanoylpiperazine-1-carbonyl)benzoyl)-N3,N4-bis((1S,2R)-2-phenylcyclopropyl)pyrrolidine-3,4-dicarboxamide]	–	0.1 to 50	–	0.1 to 50
CCCCCCCCCCCCCCNC(=O)[C@@H]1CN(C(=O)c2ccc(C(=O)N3C[C@@H](C(=O)N[C@H]4C[C@@H]4c4ccccc4)[C@H](C(=O)N[C@H]4C[C@@H]4c4ccccc4)C3)cc2)C[C@H]1OC (relative stereo) [Compound 060, (3S,4S)-1-(4-((3S*,4R*)-3-methoxy-4-(tetradecylcarbamoyl)pyrrolidine-1-carbonyl)benzoyl)-N3,N4-bis((1S,2R)-2-phenylcyclopropyl)pyrrolidine-3,4-dicarboxamide]	–	0.1 to 50	–	0.1 to 50
